Experimental data published in ChEMBL document CHEMBL5212743, “Selectivity Literature for EUbOPEN Chemogenomics Library wave 3” (2023).
pIC50, pKd: −log10 of the molar value. Values belong to the molecule of their own block, whether it stands above or below them.

Columns and labels:
[1] = biological target: BMP-2-inducible protein kinase (Homo sapiens) (UniProt Q9NSY1); experiment: Selectivity interaction (KinomeScan (DiscoverX)) EUB0000698a BMP2K; conditions: at 10 µM
[2] = biological target: Serine/threonine-protein kinase 3 (Homo sapiens) (UniProt Q13188); experiment: Selectivity interaction (KinomeScan (DiscoverX)) EUB0000698a STK3; conditions: at 10 µM
[3] = biological target: Mitogen-activated protein kinase 1 (Homo sapiens, UniProt P28482); experiment: Selectivity interaction (Kinase panel (University of Dundee)) EUB0000169b MAPK1; conditions: at 10 µM
Mitogen-activated protein kinase 1, sequence (P28482 whole entry): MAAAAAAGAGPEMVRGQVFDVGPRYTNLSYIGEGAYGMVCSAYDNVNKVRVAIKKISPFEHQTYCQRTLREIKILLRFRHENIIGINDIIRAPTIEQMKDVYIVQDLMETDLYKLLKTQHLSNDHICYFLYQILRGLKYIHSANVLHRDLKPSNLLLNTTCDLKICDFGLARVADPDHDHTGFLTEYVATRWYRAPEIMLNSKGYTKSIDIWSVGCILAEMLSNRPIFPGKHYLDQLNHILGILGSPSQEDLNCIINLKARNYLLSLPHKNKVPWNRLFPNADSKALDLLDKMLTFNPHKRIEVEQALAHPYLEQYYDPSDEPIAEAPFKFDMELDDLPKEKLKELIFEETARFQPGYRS

[4] = biological target: Mitogen-activated protein kinase 11 (Homo sapiens) (UniProt Q15759); experiment: Selectivity interaction (Kinase panel (University of Dundee)) EUB0000169b MAPK11; conditions: at 10 µM
Mitogen-activated protein kinase 11 (Homo sapiens), sequence (Q15759 whole entry): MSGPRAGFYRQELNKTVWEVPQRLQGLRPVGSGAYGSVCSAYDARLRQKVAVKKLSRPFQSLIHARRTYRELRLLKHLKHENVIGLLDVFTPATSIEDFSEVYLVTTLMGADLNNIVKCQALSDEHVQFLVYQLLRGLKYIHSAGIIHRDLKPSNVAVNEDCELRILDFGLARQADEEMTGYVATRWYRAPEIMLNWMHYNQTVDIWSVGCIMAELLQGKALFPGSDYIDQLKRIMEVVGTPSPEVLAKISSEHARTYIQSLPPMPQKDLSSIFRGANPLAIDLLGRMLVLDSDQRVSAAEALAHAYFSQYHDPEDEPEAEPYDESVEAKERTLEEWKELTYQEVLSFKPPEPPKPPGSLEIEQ

[5] = biological target: Calcium/calmodulin-dependent protein kinase kinase 1 (Homo sapiens) (UniProt Q8N5S9); experiment: Selectivity interaction (KinomeScan (DiscoverX)) EUB0000169b CAMKK1; conditions: at 1 µM
Calcium/calmodulin-dependent protein kinase kinase 1 (Homo sapiens), sequence (Q8N5S9 whole entry, looked up): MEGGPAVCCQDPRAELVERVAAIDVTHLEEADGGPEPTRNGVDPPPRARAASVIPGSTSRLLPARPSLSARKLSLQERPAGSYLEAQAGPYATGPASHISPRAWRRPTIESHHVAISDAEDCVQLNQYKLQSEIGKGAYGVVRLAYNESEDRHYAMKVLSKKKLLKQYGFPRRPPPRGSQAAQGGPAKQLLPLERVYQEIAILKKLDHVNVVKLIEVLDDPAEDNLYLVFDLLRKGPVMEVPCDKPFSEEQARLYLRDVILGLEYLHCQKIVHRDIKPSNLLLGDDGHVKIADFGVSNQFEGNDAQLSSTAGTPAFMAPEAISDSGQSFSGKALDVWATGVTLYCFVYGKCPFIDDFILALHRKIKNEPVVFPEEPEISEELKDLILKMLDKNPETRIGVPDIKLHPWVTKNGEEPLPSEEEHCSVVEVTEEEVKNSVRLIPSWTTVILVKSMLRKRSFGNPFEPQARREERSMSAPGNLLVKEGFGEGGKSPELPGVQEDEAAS

[6] = biological target: Serine/threonine-protein kinase Nek6 (Homo sapiens) (UniProt Q9HC98); experiment: Selectivity interaction (Kinase panel (University of Dundee)) EUB0000169b NEK6; conditions: at 10 µM
Serine/threonine-protein kinase Nek6 (Homo sapiens), sequence (Q9HC98 whole entry, canonical isoform): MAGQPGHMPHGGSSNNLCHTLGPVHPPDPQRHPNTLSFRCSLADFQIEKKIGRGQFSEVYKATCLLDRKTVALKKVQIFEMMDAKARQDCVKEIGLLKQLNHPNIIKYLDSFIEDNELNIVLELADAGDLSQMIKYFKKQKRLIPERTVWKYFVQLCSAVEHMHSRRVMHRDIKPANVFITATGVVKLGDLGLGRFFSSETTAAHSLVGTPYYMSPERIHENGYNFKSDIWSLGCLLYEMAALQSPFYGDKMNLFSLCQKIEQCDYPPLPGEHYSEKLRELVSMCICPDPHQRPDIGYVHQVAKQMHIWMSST

[7] = biological target: Casein kinase I isoform alpha (Homo sapiens) (UniProt P48729); conditions: at 10 µM
Casein kinase I isoform alpha (Homo sapiens), sequence (P48729 2-337 limits assumed): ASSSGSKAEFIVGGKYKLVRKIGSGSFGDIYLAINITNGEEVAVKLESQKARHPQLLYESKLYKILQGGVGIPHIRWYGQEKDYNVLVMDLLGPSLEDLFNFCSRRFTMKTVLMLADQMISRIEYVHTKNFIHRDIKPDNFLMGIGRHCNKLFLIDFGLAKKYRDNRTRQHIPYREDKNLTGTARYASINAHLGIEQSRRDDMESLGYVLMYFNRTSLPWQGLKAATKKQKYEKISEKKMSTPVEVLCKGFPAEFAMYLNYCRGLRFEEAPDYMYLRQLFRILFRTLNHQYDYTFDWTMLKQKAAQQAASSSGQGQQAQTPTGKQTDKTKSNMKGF

[8] = biological target: Mitogen-activated protein kinase 8 (Homo sapiens, UniProt P45983); conditions: at 10 µM
Mitogen-activated protein kinase 8, sequence (P45983 whole entry): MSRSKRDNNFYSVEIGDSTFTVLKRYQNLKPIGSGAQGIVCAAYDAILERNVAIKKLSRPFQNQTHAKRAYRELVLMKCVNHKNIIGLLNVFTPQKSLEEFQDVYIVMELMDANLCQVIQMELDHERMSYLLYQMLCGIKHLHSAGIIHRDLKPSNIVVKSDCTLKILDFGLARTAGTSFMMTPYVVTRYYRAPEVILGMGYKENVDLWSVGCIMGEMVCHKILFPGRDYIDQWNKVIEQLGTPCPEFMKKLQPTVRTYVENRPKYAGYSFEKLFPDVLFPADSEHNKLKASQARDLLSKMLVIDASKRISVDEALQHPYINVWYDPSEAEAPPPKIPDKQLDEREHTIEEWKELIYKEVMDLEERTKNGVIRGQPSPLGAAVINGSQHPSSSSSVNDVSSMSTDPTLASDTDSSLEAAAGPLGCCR

[9] = biological target: T1, Mitogen-activated protein kinase 12 (Homo sapiens) (UniProt P53778); conditions: at 10 µM
T1 sequence (whole entry): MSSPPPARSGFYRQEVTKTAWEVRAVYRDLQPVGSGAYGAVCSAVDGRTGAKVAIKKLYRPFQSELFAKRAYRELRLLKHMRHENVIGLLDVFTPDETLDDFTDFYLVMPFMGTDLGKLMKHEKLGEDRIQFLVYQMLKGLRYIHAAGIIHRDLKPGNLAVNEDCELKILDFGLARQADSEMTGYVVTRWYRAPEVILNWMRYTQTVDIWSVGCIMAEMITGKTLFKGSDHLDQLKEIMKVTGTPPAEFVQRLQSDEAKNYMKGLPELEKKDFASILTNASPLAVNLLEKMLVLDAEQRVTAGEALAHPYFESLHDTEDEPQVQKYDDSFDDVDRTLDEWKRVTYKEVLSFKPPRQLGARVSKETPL

Aurora kinase B = Aurora kinase B (Homo sapiens, UniProt Q96GD4); experiment: Selectivity interaction (KinomeScan (DiscoverX)) EUB0000178b AURKB; conditions: at 1 µM
[10] = biological target: Serine/threonine-protein kinase 24 (Homo sapiens) (UniProt Q9Y6E0); experiment: Selectivity interaction (KinomeScan (DiscoverX)) EUB0000178b STK24; conditions: at 1 µM
Serine/threonine-protein kinase 24 (Homo sapiens), sequence (Q9Y6E0 whole entry, looked up): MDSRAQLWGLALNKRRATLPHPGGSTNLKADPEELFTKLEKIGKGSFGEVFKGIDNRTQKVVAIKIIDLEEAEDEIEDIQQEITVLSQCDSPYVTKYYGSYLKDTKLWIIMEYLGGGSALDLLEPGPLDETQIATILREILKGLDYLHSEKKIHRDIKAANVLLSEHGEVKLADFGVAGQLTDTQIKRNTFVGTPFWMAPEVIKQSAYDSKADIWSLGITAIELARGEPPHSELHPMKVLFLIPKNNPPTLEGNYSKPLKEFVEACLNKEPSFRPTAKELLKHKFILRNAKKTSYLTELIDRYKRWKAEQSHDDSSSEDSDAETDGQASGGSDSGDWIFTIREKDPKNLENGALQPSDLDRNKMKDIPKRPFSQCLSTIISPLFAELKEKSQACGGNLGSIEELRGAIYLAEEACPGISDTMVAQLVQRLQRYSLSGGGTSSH

[11] = biological target: Serine/threonine-protein kinase TAO2 (Homo sapiens) (UniProt Q9UL54); experiment: Selectivity interaction (KinomeScan (DiscoverX)) EUB0000178b TAOK2; conditions: at 1 µM
[12] = biological target: Tyrosine-protein kinase ABL1 (Homo sapiens, UniProt P00519, T315I); experiment: Selectivity interaction (Enzymatic assay) EUB0000178b ABL1
[13] = biological target: Non-receptor tyrosine-protein kinase TYK2 (Homo sapiens, UniProt P29597); experiment: Selectivity interaction (KinomeScan (DiscoverX, competition-binding assay)) EUB0000178b TYK2
[14] = biological target: T2, Phosphatidylinositol 5-phosphate 4-kinase type-2 gamma (Homo sapiens) (UniProt Q8TBX8); experiment: Selectivity interaction (KinomeScan (DiscoverX)) EUB0000178b PIP4K2C; conditions: at 1 µM
T2 sequence (whole entry): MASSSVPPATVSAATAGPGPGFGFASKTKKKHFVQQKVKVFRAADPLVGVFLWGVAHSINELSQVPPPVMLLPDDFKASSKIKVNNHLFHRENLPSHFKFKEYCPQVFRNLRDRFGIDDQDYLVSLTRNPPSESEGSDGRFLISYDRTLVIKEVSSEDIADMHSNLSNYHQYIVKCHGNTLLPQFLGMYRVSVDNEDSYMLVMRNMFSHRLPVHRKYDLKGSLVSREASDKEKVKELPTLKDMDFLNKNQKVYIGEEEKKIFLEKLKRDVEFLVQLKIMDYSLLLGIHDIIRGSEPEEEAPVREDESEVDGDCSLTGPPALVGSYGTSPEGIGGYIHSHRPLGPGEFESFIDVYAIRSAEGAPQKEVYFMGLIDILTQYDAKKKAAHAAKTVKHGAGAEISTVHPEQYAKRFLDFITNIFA

[15] = biological target: Phosphatidylinositol 4-phosphate 5-kinase type-1 gamma (Homo sapiens) (UniProt O60331); experiment: Selectivity interaction (KinomeScan (DiscoverX)) EUB0000178b PIP5K1C; conditions: at 1 µM
[16] = biological target: Casein kinase II subunit alpha' (Homo sapiens) (UniProt P19784); experiment: Selectivity interaction (KinomeScan (DiscoverX)) EUB0000702a CSNK2A2; conditions: at 1 µM
Casein kinase II subunit alpha' (Homo sapiens), sequence (P19784 whole entry, looked up): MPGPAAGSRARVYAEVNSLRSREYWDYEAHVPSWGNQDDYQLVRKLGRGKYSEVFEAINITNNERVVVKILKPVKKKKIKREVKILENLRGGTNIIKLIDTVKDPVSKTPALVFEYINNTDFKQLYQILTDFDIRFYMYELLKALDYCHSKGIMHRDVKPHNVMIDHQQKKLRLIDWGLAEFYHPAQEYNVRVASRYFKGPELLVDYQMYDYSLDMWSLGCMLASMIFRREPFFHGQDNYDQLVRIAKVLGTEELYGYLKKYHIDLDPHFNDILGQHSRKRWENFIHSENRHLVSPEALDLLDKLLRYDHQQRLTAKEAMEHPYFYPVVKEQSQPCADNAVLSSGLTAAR

[17] = biological target: Serine/threonine-protein kinase PLK2 (Homo sapiens) (UniProt Q9NYY3); experiment: Selectivity interaction (KinomeScan (DiscoverX)) EUB0000702a PLK2; conditions: at 1 µM
Serine/threonine-protein kinase PLK2 (Homo sapiens), sequence (Q9NYY3 whole entry, looked up): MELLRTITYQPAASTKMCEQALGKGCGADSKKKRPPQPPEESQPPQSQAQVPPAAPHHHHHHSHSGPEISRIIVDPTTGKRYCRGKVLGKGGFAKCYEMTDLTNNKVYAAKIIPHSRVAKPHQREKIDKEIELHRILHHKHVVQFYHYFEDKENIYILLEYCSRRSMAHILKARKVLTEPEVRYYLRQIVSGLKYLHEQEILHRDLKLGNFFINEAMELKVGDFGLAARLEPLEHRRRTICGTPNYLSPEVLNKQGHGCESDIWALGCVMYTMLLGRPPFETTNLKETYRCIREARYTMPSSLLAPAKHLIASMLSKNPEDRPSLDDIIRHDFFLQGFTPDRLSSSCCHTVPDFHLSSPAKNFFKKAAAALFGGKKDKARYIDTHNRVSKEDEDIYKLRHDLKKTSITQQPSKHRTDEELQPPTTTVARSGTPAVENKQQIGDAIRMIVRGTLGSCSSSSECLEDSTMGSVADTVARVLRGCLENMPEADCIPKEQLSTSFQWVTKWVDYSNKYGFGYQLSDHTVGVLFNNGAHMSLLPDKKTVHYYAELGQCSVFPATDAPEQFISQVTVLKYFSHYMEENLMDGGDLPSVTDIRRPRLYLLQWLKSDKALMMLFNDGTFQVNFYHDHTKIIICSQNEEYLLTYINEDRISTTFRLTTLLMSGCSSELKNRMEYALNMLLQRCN

[18] = biological target: Serine/threonine-protein kinase Chk2 (Homo sapiens, UniProt O96017); conditions: at 1 µM
[19] = biological target: Cyclin-dependent kinase 19 (Homo sapiens) (UniProt Q9BWU1); conditions: at 1 µM
[20] = biological target: High affinity nerve growth factor receptor (Homo sapiens, UniProt P04629); conditions: at 1 µM

BMP-2-inducible protein kinase (Homo sapiens), sequence (Q9NSY1 whole entry, looked up): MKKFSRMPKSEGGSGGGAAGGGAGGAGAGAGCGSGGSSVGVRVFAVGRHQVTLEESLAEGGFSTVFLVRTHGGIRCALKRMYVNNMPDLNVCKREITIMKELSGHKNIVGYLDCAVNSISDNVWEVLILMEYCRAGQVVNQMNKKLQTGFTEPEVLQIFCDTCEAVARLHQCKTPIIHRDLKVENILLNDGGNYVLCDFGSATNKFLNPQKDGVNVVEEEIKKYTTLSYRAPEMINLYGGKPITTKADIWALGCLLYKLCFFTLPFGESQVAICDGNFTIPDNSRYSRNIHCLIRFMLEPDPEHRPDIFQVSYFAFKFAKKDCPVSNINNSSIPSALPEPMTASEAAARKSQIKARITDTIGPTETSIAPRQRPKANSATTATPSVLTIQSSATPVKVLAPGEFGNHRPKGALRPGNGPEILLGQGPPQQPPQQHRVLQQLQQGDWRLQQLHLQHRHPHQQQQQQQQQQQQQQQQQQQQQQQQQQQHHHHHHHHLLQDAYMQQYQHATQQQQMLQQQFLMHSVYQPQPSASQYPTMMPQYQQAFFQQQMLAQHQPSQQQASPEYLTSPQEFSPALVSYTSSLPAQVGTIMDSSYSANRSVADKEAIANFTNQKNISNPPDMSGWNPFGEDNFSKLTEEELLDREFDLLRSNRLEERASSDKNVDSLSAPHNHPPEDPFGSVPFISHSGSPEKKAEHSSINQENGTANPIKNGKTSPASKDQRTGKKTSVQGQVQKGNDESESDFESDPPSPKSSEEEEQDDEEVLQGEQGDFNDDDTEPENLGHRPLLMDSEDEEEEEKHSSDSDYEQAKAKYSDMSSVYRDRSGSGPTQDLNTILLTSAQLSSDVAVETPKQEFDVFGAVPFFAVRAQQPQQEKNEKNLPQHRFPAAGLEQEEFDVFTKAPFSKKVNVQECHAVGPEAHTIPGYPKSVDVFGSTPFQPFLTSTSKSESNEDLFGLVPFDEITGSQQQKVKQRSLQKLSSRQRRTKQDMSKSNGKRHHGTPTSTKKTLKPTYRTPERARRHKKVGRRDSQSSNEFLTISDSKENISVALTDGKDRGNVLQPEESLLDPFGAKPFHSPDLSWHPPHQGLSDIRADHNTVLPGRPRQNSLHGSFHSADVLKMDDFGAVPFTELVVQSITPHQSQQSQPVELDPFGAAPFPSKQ

Structure (SMILES): COc1cc2ncn(-c3cc(OCc4ccccc4C(F)(F)F)c(C(N)=O)s3)c2cc1OC [GW843682X]
% of control [1]: 1%
% of control [2]: 1.8%

Structure (SMILES): CC[C@@H]1C(=O)N(C)c2cnc(Nc3ccc(C(=O)NC4CCN(C)CC4)cc3OC)nc2N1C1CCCC1
% of control [3]: 93%
% of control [4]: 97%
% of control [5]: 3.7%
% of control [6]: 110%
% of control [7]: 56%
% of control [8]: 92%
% of control [9]: 112%

Structure (SMILES): CCOc1cn(-c2ccc(F)cc2C)nc1C(=O)Nc1ccc(Oc2ccnc3cc(OC)c(OC)cc23)c(F)c1
% of control [18]: < 10%
% of control [19]: < 10%
% of control [20]: < 10%

Further lines, results first:

% of control (Aurora kinase B): 3.4%
% of control [10]: 0.9%
% of control [11]: 3.4%
pIC50 [12]: 7.78
pKd [13]: 6.21
% of control [14]: 8%
% of control [15]: 10%
Structure (SMILES): CN1C(=O)c2sccc2N(C)c2nc(Nc3ccc(S(N)(=O)=O)cc3)ncc21

% of control [16]: 66.7%
% of control [17]: 0.5%
Structure (SMILES): CN(c1ccnc(CNc2nc(Nc3ccc4c(c3)CC(=O)N4)ncc2C(F)(F)F)n1)S(C)(=O)=O [PF-00911705]
